For this experiment, the system named is six mushroom strains: Aspergillus Sydowi, Aspergillus Versicolor, Cladosporium Herbarum, Cladosporium Sphaerospernum, Penicillium Citrinum and Penicillium …. The experiment can be described thus: Development of moulds on treated paper, standard AFNOR X 41 517. As to conditions: overall judgement of the paper mould test. Here is the method:
The following test was carried out. Two surfaces of a woodless industrial paper weighing 80 g/m^2 dry, having a 1-minute COBB value of 25 to 35, were brought into contact with six mushroom strains for 14 days under the quality test conditions of the standard AFNOR X 41 517: the strains used were Aspergillus Sydowi, Aspergillus Versicolor, Cladosporium Herbarum, Cladosporium Sphaerospernum, Penicillium Citrinum and Penicillium Corylophilum. At the end of this period, visual assessment of the development of moulds was noted using a code from 0 to 6+, the value 6+ being allocated to the untreated control, while the notation 0 corresponded to no development of the seeded moulds.
The fungicide solutions used in this test were prepared in the same way as mentioned above. With regard to the fungicide T1, chlorothalonil was mixed in water. The fungicidal product T2 was prepared on the basis of di-iodo-ethyl-p-tolyl-sulphone only. The fungicide T3 was prepared from a mixture of chlorotalonyl and a zinc pyrithione. The fungicide T4 was prepared from a mixture of Amical (di-iodomethyl-p-tolyl-sulphone, and zinc pyrithione. Finally the fungicide T5 corresponds to the mixture given by way of example above according to the invention, i.e. a mixture of chlorotalonyl and di-iodo-methyl-p-tolyl-sulphone or Amical.

Consider `N#Cc1c(Cl)c(Cl)c(Cl)c(C#N)c1Cl` [Chlorothalonil alone T1, 2,4,5,6 tetrachloro-1,3 benzene dicarbonitrile], for which the “fungicidal quality in words, as seen from the Table” value was “average fungicide”. With `Cc1ccc(S(=O)(=O)C(I)I)cc1` [DIMPTS alone T2, di-iodomethyl-p-tolyl-sulphone] the entry was “excellent fungicide”.

Values taken from patent publication US7306811B2, “Fungicide composition based on halosulphone in particular for packaging” (priority 2000, dated 2007).
